Measured values from ChEMBL document CHEMBL4321836, “Discovery of BAY-298 and BAY-899: Tetrahydro-1,6-naphthyridine-Based, Potent, and Selective Antagonists of the Luteinizing Hormone Receptor Which Reduce Sex Hormone Levels in Vivo” (J Med Chem, 2019).

Experiments:
[1] = target: P2Y purinoceptor 2 (Homo sapiens) (UniProt P41231); assay: Antagonist activity at human P2Y2 receptor expressed in human 1321N1 cells at 10 uM by fluorimetric method relative to control; type: cell-based; parameters: scale not given: the % may be the effect or the level left
Chain of P2Y purinoceptor 2 (Homo sapiens) (P41231 whole entry): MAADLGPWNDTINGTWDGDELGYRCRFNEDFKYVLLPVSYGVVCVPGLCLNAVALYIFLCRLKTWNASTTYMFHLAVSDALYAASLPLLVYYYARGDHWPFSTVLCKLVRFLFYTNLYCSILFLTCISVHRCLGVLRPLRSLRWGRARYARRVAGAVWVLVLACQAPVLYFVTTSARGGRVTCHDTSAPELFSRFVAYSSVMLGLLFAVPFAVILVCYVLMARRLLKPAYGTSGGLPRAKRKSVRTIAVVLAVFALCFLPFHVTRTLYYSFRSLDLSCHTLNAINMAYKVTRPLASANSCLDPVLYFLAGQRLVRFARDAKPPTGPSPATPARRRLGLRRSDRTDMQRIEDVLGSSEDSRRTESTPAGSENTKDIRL

[2] = target: Beta-1 adrenergic receptor (Homo sapiens) (UniProt P08588); assay: Agonist activity at human beta1 adrenergic receptor expressed in HEK293 cells at 10 uM after 30 mins HTRF assay relative to control; type: cell-based
Chain of Beta-1 adrenergic receptor (Homo sapiens) (P08588 whole entry, looked up): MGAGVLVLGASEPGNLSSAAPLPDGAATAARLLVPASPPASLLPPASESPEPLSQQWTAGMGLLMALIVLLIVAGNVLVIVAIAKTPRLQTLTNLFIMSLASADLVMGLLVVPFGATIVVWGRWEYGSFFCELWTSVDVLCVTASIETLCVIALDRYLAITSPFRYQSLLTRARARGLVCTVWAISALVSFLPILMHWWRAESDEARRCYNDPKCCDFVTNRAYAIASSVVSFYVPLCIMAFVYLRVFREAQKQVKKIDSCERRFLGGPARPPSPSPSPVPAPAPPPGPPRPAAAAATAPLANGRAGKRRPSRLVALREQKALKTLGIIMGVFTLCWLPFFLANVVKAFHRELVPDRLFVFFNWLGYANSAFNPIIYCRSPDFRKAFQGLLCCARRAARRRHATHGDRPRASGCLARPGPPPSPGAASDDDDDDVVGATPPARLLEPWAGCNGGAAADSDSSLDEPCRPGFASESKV

[3] = Clearance in rat liver microsomes at 1 uM measured after 2 to 60 mins in presence of glucose-6-phosphate by LC-MS/MS analysis; type: ADME, Microsome
[4] = target: 5-hydroxytryptamine receptor 6 (Homo sapiens) (UniProt P50406); assay: Agonist activity at human 5-HT6 receptor expressed in CHO-K1 cells at 10 uM after 30 mins by HTRF assay relative to control; type: cell-based
Chain of 5-hydroxytryptamine receptor 6 (Homo sapiens) (P50406 whole entry): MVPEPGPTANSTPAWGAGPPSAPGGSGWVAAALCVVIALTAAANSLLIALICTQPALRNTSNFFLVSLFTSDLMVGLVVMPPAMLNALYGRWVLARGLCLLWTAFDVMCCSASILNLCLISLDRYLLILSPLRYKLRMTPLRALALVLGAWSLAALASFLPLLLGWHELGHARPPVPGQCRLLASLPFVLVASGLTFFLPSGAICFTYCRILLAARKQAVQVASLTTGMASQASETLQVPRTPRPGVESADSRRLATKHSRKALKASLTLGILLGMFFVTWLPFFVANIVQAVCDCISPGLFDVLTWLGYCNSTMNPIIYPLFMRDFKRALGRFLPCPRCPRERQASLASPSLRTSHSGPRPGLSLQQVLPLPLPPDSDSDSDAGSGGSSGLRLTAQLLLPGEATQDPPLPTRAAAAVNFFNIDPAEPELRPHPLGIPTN

[5] = target: T1, Adenosine receptor A3 (Homo sapiens) (UniProt P0DMS8); assay: Antagonist activity at human A3 receptor expressed in CHO-K1 cells at 10 uM after 20 mins by HTRF assay relative to control; type: cell-based; parameters: scale not given: the % may be the effect or the level left
T1 sequence (whole entry): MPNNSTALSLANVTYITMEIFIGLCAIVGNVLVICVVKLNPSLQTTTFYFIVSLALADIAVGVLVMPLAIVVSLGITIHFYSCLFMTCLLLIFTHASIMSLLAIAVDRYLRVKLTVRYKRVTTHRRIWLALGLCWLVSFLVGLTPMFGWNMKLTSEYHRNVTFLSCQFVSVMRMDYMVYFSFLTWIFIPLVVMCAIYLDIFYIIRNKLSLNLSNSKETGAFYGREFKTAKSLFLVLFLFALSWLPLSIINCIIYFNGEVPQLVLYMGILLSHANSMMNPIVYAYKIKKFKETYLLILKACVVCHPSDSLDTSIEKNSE

[6] = target: T1, Adenosine receptor A3 (Homo sapiens); assay: Agonist activity at human A3 receptor expressed in CHO-K1 cells at 10 uM after 20 mins by HTRF assay relative to control; type: cell-based
[7] = Oral bioavailability in Wistar rat at 2 mg/kg after 8 to 72 hrs by LC-MS/MS analysis; type: ADME, organism-based; conditions: in vivo
Rattus norvegicus = assay: Downregulation of estradiol level in proestrus staged-female rat serum at 12.5 mg/kg, po administered once daily for 8 days and measured by radioimmunoassay method (reference value: 144 pmol/L); type: functional
[8] = target: T2, Alpha-2A adrenergic receptor (Homo sapiens) (UniProt P08913); assay: Agonist activity at human alpha2A adrenergic receptor expressed in Chem-1 cells at 10 uM by fluorimetric method relative to control; type: cell-based
T2 sequence (whole entry): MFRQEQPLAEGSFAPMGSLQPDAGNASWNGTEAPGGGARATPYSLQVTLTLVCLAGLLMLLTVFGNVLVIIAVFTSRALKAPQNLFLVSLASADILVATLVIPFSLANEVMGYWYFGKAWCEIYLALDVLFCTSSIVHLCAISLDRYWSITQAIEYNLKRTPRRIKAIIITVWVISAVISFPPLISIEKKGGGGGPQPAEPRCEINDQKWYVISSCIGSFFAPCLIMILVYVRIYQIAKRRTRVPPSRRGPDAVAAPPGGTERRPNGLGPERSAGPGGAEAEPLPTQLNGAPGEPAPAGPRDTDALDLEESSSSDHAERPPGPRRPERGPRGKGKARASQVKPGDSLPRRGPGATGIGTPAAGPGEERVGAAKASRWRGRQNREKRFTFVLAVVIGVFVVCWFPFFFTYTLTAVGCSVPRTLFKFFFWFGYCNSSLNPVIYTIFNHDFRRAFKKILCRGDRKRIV

Cytochrome P450 2C8 = Cytochrome P450 2C8 (Homo sapiens, UniProt P10632); assay: Inhibition of CYP2C8 in human liver microsomes using amodiaquine as substrate by LC-MS/MS analysis; type: ADME
Chain of Cytochrome P450 2C8 (P10632 whole entry): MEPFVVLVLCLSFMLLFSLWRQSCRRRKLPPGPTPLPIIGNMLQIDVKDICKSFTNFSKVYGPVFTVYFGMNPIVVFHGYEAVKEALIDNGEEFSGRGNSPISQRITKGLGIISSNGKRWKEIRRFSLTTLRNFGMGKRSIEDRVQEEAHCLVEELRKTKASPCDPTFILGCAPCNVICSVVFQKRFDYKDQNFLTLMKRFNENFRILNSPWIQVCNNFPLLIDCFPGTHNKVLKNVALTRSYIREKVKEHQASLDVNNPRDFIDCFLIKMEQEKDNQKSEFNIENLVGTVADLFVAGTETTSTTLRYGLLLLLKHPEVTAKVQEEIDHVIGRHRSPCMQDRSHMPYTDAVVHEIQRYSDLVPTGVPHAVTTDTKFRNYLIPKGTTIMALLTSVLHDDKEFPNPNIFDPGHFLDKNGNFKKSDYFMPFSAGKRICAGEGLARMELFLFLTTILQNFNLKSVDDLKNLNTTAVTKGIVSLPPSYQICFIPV

Cytochrome P450 3A4 = Cytochrome P450 3A4 (Homo sapiens, UniProt P08684); assay: Inhibition of CYP3A4 in human liver microsomes using midazolam as substrate by LC-MS/MS analysis; type: ADME
Chain of Cytochrome P450 3A4 (P08684 whole entry): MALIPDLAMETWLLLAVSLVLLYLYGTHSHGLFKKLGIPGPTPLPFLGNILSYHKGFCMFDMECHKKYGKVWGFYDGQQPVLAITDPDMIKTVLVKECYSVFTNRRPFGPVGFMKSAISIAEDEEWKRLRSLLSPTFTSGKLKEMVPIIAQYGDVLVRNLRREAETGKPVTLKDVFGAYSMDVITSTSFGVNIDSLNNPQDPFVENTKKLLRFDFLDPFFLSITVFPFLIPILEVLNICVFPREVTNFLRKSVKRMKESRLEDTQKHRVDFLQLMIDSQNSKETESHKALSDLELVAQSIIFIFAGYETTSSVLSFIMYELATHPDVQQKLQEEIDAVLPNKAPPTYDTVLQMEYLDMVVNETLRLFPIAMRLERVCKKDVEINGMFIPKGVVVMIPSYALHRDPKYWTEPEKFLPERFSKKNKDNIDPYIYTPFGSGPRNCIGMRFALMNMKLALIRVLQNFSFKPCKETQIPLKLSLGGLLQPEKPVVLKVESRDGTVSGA

[9] = target: Substance-P receptor (Homo sapiens) (UniProt P25103); assay: Antagonist activity at human NK1 receptor expressed in U373 MG cells at 10 uM by fluorimetric method relative to control; type: cell-based; parameters: scale not given: the % may be the effect or the level left; conditions: U-373MG ATCC
Chain of Substance-P receptor (Homo sapiens) (P25103 whole entry): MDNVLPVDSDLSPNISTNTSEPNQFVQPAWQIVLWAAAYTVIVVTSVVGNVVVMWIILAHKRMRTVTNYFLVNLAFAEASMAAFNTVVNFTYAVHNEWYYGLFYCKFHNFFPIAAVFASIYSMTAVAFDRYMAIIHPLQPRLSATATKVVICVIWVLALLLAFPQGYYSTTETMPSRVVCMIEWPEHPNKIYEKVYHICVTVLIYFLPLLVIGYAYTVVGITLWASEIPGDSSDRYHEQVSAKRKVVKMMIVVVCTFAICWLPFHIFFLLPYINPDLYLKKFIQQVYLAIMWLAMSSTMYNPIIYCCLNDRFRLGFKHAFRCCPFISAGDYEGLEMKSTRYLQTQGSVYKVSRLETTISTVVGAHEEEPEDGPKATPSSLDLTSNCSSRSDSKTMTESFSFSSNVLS

[10] = target: Lutropin-choriogonadotropic hormone receptor (Rattus norvegicus, UniProt P16235); assay: Antagonist activity at rat luteinizing hormone receptor expressed in rat ovary granulosa GLHR15 cell suspension assessed as reduction in agonist-induced cAMP production preincubated for 30 mins followed by agonist solution addition after 30 mins by cell based TR-FRET assay; type: functional
Chain of Lutropin-choriogonadotropic hormone receptor (P16235 whole entry): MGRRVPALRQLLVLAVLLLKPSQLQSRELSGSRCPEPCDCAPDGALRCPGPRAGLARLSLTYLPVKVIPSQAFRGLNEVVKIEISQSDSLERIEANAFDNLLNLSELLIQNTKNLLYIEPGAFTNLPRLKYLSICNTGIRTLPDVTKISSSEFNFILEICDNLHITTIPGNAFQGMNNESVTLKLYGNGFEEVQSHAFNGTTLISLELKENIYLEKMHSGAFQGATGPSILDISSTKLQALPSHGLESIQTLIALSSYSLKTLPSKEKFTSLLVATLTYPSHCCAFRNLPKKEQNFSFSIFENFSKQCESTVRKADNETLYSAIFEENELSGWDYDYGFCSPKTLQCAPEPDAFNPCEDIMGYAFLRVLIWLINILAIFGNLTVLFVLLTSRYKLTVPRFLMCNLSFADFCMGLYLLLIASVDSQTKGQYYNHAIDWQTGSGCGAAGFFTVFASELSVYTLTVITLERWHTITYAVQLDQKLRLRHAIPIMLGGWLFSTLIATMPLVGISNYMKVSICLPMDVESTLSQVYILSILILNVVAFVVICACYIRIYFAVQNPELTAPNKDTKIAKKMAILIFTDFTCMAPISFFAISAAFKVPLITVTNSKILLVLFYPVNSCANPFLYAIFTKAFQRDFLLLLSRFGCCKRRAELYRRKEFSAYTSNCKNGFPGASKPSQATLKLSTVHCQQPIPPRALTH

[11] = target: Histamine H1 receptor (Homo sapiens) (UniProt P35367); assay: Antagonist activity at human histamine H1 receptor expressed in HEK293 cells at 10 uM by Fluorimetric method relative to control; type: cell-based; parameters: scale not given: the % may be the effect or the level left
Chain of Histamine H1 receptor (Homo sapiens) (P35367 whole entry): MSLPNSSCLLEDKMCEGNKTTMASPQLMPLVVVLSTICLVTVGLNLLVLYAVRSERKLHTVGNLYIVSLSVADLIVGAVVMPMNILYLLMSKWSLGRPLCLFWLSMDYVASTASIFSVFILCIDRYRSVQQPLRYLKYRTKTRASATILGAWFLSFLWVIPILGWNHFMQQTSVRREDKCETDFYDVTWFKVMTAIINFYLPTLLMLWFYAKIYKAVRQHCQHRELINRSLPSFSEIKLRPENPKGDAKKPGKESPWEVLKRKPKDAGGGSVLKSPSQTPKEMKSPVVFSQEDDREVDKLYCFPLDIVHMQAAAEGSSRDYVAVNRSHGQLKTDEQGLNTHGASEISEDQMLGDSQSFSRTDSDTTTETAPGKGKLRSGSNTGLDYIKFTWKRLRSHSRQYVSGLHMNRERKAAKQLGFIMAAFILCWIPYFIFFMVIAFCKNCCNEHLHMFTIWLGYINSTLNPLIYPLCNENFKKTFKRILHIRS

[12] = target: Beta-1 adrenergic receptor (Homo sapiens) (UniProt P08588); assay: Antagonist activity at human beta1 adrenergic receptor expressed in HEK293 cells at 10 uM after 30 mins HTRF assay relative to control; type: cell-based; parameters: scale not given: the % may be the effect or the level left
[13] = target: Histamine H2 receptor (Homo sapiens) (UniProt P25021); assay: Agonist activity at human histamine H2 receptor expressed in CHO-K1 cells at 10 uM after 30 mins by HTRF assay relative to control; type: cell-based
Chain of Histamine H2 receptor (Homo sapiens) (P25021 whole entry): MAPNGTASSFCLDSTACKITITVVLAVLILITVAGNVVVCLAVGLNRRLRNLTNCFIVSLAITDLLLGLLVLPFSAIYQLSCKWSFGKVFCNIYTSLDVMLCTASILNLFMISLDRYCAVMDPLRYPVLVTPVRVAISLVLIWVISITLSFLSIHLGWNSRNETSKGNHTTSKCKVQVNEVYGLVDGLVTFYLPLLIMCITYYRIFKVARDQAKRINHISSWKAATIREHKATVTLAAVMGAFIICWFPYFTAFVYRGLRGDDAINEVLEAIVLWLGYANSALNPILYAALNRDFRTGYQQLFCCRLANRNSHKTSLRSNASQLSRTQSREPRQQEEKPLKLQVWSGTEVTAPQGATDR

[14] = Toxicity in female rat assessed as effect on animal activity; conditions: in vivo
[15] = Dose normalized Cmax in Wistar rat at 2 mg/kg, po after 8 to 72 hrs by LC-MS/MS analysis; type: ADME, organism-based; conditions: in vivo
[16] = target: 5-hydroxytryptamine receptor 2B (Homo sapiens) (UniProt P41595); assay: Agonist activity at human 5-HT2B receptor expressed in CHO-K1 cells at 10 uM after 30 mins by HTRF assay relative to control; type: cell-based
Chain of 5-hydroxytryptamine receptor 2B (Homo sapiens) (P41595 whole entry): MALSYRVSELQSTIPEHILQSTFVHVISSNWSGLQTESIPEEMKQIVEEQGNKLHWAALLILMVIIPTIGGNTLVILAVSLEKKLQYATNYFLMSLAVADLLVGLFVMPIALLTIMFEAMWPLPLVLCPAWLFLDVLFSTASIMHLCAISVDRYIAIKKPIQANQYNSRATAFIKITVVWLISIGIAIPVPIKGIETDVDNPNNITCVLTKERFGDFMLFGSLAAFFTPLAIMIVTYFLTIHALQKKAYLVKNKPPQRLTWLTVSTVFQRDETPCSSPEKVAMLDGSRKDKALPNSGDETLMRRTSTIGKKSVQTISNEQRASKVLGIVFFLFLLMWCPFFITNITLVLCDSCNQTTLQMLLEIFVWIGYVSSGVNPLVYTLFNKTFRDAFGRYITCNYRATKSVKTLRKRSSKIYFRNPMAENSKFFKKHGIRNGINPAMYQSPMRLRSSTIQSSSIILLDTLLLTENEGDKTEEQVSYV

[17] = target: Motilin receptor (Homo sapiens) (UniProt O43193); assay: Agonist activity at human Motilin receptor expressed in CHO-K1 cells at 10 uM by fluorimetric method relative to control; type: cell-based
[18] = Clearance in Han Wistar rat hepatocytes at 1 uM measured after 2 to 90 mins by LC-MS/MS analysis; type: ADME, cell-based, Hepatocyte
[19] = Apparent permeability across basolateral to apical side in human Caco2 cells at 2 uM after 2 hrs by LC-MS/MS analysis; type: ADME, cell-based; conditions: Caco-2
[20] = target: D(2) dopamine receptor (Homo sapiens) (UniProt P14416); assay: Agonist activity at human Dopamine D2L receptor expressed in CHO-K1 cells at 10 uM by Fluorimetric analysis relative to control; type: cell-based

Row | Structure (SMILES) | Activity [1] [%] | Activity [2] [%] | CLH [3] [mL/min/kg] | Activity [4] [%] | Activity [5] [%] | Activity [6] [%] | bioavailability [7] [%] | Activity (Rattus norvegicus) [pmol/L] | Activity [8] [%] | IC50 (Cytochrome P450 2C8) [µM] | IC50 (Cytochrome P450 3A4) [µM] | Activity [9] [%] | IC50 [10] [µM] | Activity [11] [%] | Activity [12] [%] | Activity [13] [%] | Activity [14] | Cmax/dose [15] [kg/L] | Activity [16] [%] | Activity [17] [%] | further results
1 | O=C(Nc1ccc(Oc2ccc(F)cc2)cc1)N1CCc2ncccc2[C@@H]1c1ccc(Cl)cc1 | < 70 | < 70 | 3.3 | < 70 | < 70 | < 70 | 83 | 57 | < 70 | 0.7 | > 20 | < 70 | 0.023 | < 70 | < 70 | < 70 | Non-Toxic | 0.24 | < 70 | < 70 | CLH [18]: 18.3 mL/min/kg; Papp B→A at 2 h, 2 µM [19]: 2 ×10⁻⁶ cm/s; Activity [20]: < 70%
2 | O=C(Nc1cnc(Oc2ccc(F)cc2)nc1)N1CCc2ncccc2[C@@H]1c1ccc(F)cc1 [BAY-899] | < 70 | < 70 | 3.3 | < 70 | < 70 | < 70 | 108 | 54 | < 70 | 3.1 | > 20 | < 70 | 0.046 | < 70 | < 70 | < 70 | Non-Toxic | 0.066 | < 70 | < 70 | CLH [18]: 21.7 mL/min/kg; Papp B→A at 2 h, 2 µM [19]: 9.5 ×10⁻⁶ cm/s; Activity [20]: < 70%
